{"source": "patent US20230212517A1", "about": "“METHODS FOR GENERATING HEMATOPOIETIC STEM CELLS” (The Brigham and Women's Hospital, Inc., priority 2018, published 2023)", "key": {"E11.5 AGM cells": {"test_system": "E11.5 AGM cells", "assay": "RNA-sequencing / whole transcriptome analyses of treated E11.5 AGM cells", "type": "cell-based, mouse", "settings": "Venn comparison of up-regulated genes, endothelial-to-HSC transition", "experimental": "RNA-sequencing analyses were performed to measure gene expression patterns in mouse AGM treated with cyclic strain or pharmacological modulators. Using computational algorithms, hierarchical clustering was performed of differentially expressed genes as well as measured their overrepresented biological processes and pathways. Gene expression clusters of differentially expressed genes were analyzed and their mean expression level across cell populations compared. Next, Venn comparison of up- and down-genes was constructed to analyze candidate(s) important for cyclic strain- or pharmacological modulator(s)-mediated the endothelial-to-HSC transition. Furthermore, Dnmt3b and Dnmt3a protein expressions were analyzed in nuclear fractions of mouse AGM cells using EPIQUIK methyltransferase assay kits. Data are presented as mean±s.d. unless otherwise noted. Statistical analyses were performed by paired or un-paired Student's t-tests. […]\nTotal RNA from E11.5 mouse AGM explant cultures was isolated (control, stretch, Yoda1 and 4αPDD conditions) with the RNAEASY MiniKit (QIAGEN). […] We mapped our sequenced read fragments to the mouse reference genome GRCm38 (ENSEMBL release 69) using the Genomic Short-Read Nucleotide Alignment program (version 2012 Jul. 20). […] Gene expression clusters of differentially expressed genes were analyzed and their mean expression level across cell populations compared. […]"}, "[1]": {"test_system": "spleen-sorted Cd3+ T cells (donor)", "assay": "PCR assay for TCR-β rearrangement in donor T cells of primary transplant", "type": "in vivo, mouse", "settings": "primary transplant of treated E11.5 AGM; Mac1+ myeloid cells negative control", "experimental": "Pulsating blood vessels like conditions were stimulated in vitro using FLEXCELL FX-4000 cell stretching bioreactor machine. To analyze roles of pharmacological targets in regulating the endothelial-to-HSC transition, mouse embryo-derived AGM or whole mouse embryo were exposed ex vivo with biomechanical stretching, chemicals, or drugs. Next, hematopoietic colony formation assays were performed by incubating mouse AGM-derived cells in StemCell M3434 media for seven days. Serial transplantation of AGM-derived HSCs in lethally irradiated SJL mice were performed. The stem cell frequency upon biomechanical stretching was analyzed using a limiting dilution assay. To characterize properties of AGM-HSC-derived blood cells in primary transplants, percentage chimerism and reconstitution was measured using FACS, globin transcripts were analyzed using quantitative reverse transcriptase-PCR, myeloperoxidase amount was measured using PICOKINE ELISA kit, TCR-β rearrangement was analyzed using PCR for TCR-β locus, pre-immune IG detection was analyzed using Thermo-Fisher Mouse Ig Isotyping kit, and delayed-type hypersensitivity was analyzed by injecting sheep RBC (Rockland Immunochemicals) in the footpad of pre-sensitized mice.\nT cells (Cd45.2^+, Cd3^+) and myeloid cells (Cd45.2^+, Mac1^+) were FACS sorted from the splenocytes of 16 week-primary transplanted mice. […]"}, "Dnmt3a": {"test_system": "Dnmt3a", "assay": "Dnmt3a protein level in nuclear fractions of E11.5 AGM cells (EPIQUIK assay kit)", "type": "cell-based, mouse", "settings": "nuclear fractions of treated E11.5 AGM cells", "experimental": "RNA-sequencing analyses were performed to measure gene expression patterns in mouse AGM treated with cyclic strain or pharmacological modulators. Using computational algorithms, hierarchical clustering was performed of differentially expressed genes as well as measured their overrepresented biological processes and pathways. Gene expression clusters of differentially expressed genes were analyzed and their mean expression level across cell populations compared. Next, Venn comparison of up- and down-genes was constructed to analyze candidate(s) important for cyclic strain- or pharmacological modulator(s)-mediated the endothelial-to-HSC transition. Furthermore, Dnmt3b and Dnmt3a protein expressions were analyzed in nuclear fractions of mouse AGM cells using EPIQUIK methyltransferase assay kits. Data are presented as mean±s.d. unless otherwise noted. Statistical analyses were performed by paired or un-paired Student's t-tests. Significance was set at P<0.05.\nNuclear extracts from AGM explants were harvested using an EPIQUIK Nuclear Extraction Kit (Epigentek Group Inc.). Dnmt3b and Dnmt3a protein levels were analyzed using a colorimetric EPIQUIK methyltransferase Assay Kit (Epigentek Group Inc.), according to the manufacturer's instructions. Concentration of Dnmt3b and Dnmt3a is relative to 1 μg of nuclear extract proteins."}}, "note": "“Also recorded” adds a separate entry of the source.", "data": [{"smiles": "Clc1cccc(Cl)c1CSc1nnc(-c2cnccn2)s1", "note": "[Yoda1, 2-[5-[[(2,6-Dichlorophenyl)methyl]thio]-1,3,4-thiadiazol-2-yl]-pyrazine]", "values": [{"measurement": "Dnmt3b transcript expression", "setting": "E11.5 AGM cells", "result": "specifically stimulate"}, {"measurement": "Gimap6 transcript expression", "setting": "E11.5 AGM cells", "result": "specifically stimulate"}, {"measurement": "T-cell receptor β (TCRβ) locus rearrangement in donor T-cells", "setting": "[1]", "result": "display T-cell receptor β (TCR β) rearrangement"}, {"measurement": "Dnmt3a protein expression level", "setting": "Dnmt3a", "result": "not Dnmt3a; also recorded: without impacting the expression of Dnmt3a"}]}]}
